Laboratory results from patent US5493007A, “Platelet aggregation inhibitors having high specificity for GPIIBIIIA” (Genentech, Inc., priority 1994, dated 1996).
Values joined by “and” are separate entries in the source; they are usually repeats but may differ in a detail not shown here. Equal values may be shown once. Read-outs that look alike come from different tables or passages of the source. Where a SMILES comes first, the peptide text is derived from it. Bridges are numbered along the chain shown (N, C = ends). [ ]: non-standard residue; d: D form. Aad = N[C@@H](CCCC(=O)O)C(=O)O; Pen = CC(C)(S)[C@H](N)C(=O)O; Orn = NCCC[C@H](N)C(=O)O

Legend:
[1] = system: platelet rich plasma (PRP); experiment: Rabbit ex-vivo platelet aggregation (XPA), ADP-induced; type: in vivo; settings: Example 1
Experimental: Catheters are flushed and locked after every sample.
[…] of PRP is placed in a disposable glass cuvette with a stir bar. The cuvette is placed in the temperature regulated light path of a light transmittance aggregometer (Chrono-log) and equilibrated to a 37° C. Baseline transmittance is recorded for 30 seconds, after which […] of ADP (1 mM) is added and the change in transmittance recorded. The maximum change from baseline (dT) is noted for each sample. The extent of inhibition of XPA that is produced by an inhibitor is calculated for each animal as follows: Mean dTs are calculated for the pre and post infusion values, and then, percent inhibition is calculated as (1-dt (post)/ddt (pre))×100.

[2] = target: T1, Vitronectin Receptor (αvβ3) (Homo sapiens, UniProt P05106+P06756); experiment: Human Vitronectin-Vitronectin Receptor (αvβ3) ELISA Assay; type: binding; settings: purified human αvβ3, vitronectin-coated plates; read-out: ELISA IC50 Vitronectin VnR
T1 construct: Human vitronection receptor (VnR) is purified from human placenta; from tissue; host or cells: human placenta
Source text: Human vitronectin (Vn) is isolated from human plasma and purified by affinity chromatography by the method of Yatohgo et. al., (Cell Structure and Function 13:281-292 [1988]).
Human vitronection receptor (VnR) is purified from human placenta by the method of Pytela et al., (Methods Enzymol., 144:475 [1987]). Alternatively the αvβ3 receptor can be purified from some cell lines (e.g., human embryonic kidney 293 cells) transfected with DNA sequences for both the αv and β3 subunits. The subunits are purified by employing octylglucoside extraction followed by Con-A, Heparin-Sepharose, and S-300 Chromatography.
Anti-GP IIb IIIa monoclonal antibodies specific for human GP IIIa are prepared by the method of Newman et al. (Blood, 65:227-232 [1985]), or a similar procedure. This mouse Mab is specific for the β3 subunit of the vitronectin receptor.
Rabbit Fab 2 anti-mouse Fc fragment horse radish peroxidase conjugate (anti-MuFc HRP) is obtained from PelFreeze (cat. no. 715305-1).
Maxisorp microtiter plates are coated with 2 μg/ml human vitronectin dissolved in PBS ([…]) and stored overnight at 4° C. The plates are washed two times with PBS-0.05% Tween-20 (wash buffer) and blocked by incubating with about 150 μl/well of assay buffer (1%, BSA [RIA grade or better] in 50 mM Tris-HCl, 100 mM NaCl, 1 mM MgCl2, CaCl2, MnCl2 pH 7.4) for 60 minutes. Dilutions of standards are prepared and putative inhibitors (Table 3) are dissolved in assay buffer. The blocked plates are emptied and 25 μl/well of inhibitor or standard solution is added to each well. Twenty-five μl of a 30 μg/ml solution of purified αvβ3 in assay buffer is pipetted into the coated plate. The final concentration of receptor in the assay well is about 15 μg/ml. The plate is incubated on a shaker for 60 minutes. Meanwhile, for each microtite plate, 6 ml buffer solution containing 1.5 μg/ml of mouse monoclonal antibody specific for β3 is prepared. To this solution is added μl of the secondary antibody, which is anti-mouse-Fc-HRP antibody conjugate. For example, for one plate, prepare 6 ml of a 1.5 μg/ml mouse Mab solution to which is added 1 μl of anti-mouse-Fc-HRP antibody stock, (this represents a 1:6000 dilution of the antibody - HRP conjugate). This mixture is allowed to incubate during the receptor-inhibitor incubation. The assay plates are washed 4 times with PBS-Tween and 50 μl/well of the antibody mixture is then pipetted into the plate for a 60 minute incubation. The plate is washed 4 times and the color reaction is developed with 50 μl/well of 0.67 mg/ml o-phenyldiamine in PBS containing 0.012% H2 O2. Alternatively, 16 mM citric acid, 50 mM Na2 PO4 at pH 5.0 can be used as a substrate buffer. The reaction is stopped with 50 μl/well 1M H2 SO4. The plates are read at 492-405 nm and the data analyzed by four-parameter fit.

[3] = target: human platelet rich plasma (PRP) (Homo sapiens, UniProt P05106+P08514); experiment: In Vitro Human Platelet Aggregation Assay; type: cell-based; settings: for IC50: human PRP, read-out: Human Platelet Aggregation IC50
Method in brief: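 Citrated human PRP, diluted with PPP to about 300,000 platelets/μl from donors free of aspirin for two weeks, was preincubated with inhibitor or PBS for 5 minutes at 25° C. Aggregation was then triggered by collagen 1 μg/ml, U46619 100 ng/ml or ADP 17 μM and followed by light transmission.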

GP IIb IIIa = GP IIb IIIa (Homo sapiens, UniProt P05106+P08514); experiment: GP IIb IIIa -von Willebrand factor (vWF) ELISA Assay; type: binding; parameters: GP IIb IIIa, prepared by the method of Fitzgerald et al; from tissue
Experimental: Microtiter plates are coated with 1.0 μg/ml GP IIb IIIa, prepared by the method of Fitzgerald et al., (Anal. Biochem. 151:169-177 [1985]) and allowed to incubate overnight in coat buffer. The plates are then washed three times in wash buffer (0.05% Tween 20 in PBS) and 150 μl of assay buffer is added and allowed to incubate for 1-2 hours at room temperature on plate shaker. The plates are washed three times and 50 μl of 2x inhibitor in assay buffer (Assay buffer: 0.5% BSA/50 mM Tris, 100 mM NaCl, 1.0 mM CaCl2, 1.0mM MgCl2, 1.0 mM MnCl2; coat buffer is the same but without BSA) is added. Fifty μl of 4.0 μg/ml vWF (prepared as described by Ledford et al., Thrombosis and Haemostasis, 64(4): 569-575 [1990]) in assay buffer is then added and allowed to incubate for one hour at room temperature on plate-shaker. The plates are washed three times and the antibody mixture is added (1:5000 of mouse anti-vWF and 1:5000 of rabbit-anti-mouse-Fc-HRP, both commercially available) in assay buffer and incubated for 1 hour at room temperature on plate-shaker. Plates are again washed three times and 100 μl of substrate solution (10 mg OPD, 6.5 μl H2 O2, 15 ml phosphate citrate buffer) is added and incubated at room temperature. The color change of OPD/H2 O2 reagent is read at 492 nm with a 405 nm reference wavelength on the filter photometer.

[4] = GP IIb IIIa-coated plates, vWF, read-out: ELISA IC50 GPIIb IIIa vWF

T1 sequence (P06756 31-889 limits assumed): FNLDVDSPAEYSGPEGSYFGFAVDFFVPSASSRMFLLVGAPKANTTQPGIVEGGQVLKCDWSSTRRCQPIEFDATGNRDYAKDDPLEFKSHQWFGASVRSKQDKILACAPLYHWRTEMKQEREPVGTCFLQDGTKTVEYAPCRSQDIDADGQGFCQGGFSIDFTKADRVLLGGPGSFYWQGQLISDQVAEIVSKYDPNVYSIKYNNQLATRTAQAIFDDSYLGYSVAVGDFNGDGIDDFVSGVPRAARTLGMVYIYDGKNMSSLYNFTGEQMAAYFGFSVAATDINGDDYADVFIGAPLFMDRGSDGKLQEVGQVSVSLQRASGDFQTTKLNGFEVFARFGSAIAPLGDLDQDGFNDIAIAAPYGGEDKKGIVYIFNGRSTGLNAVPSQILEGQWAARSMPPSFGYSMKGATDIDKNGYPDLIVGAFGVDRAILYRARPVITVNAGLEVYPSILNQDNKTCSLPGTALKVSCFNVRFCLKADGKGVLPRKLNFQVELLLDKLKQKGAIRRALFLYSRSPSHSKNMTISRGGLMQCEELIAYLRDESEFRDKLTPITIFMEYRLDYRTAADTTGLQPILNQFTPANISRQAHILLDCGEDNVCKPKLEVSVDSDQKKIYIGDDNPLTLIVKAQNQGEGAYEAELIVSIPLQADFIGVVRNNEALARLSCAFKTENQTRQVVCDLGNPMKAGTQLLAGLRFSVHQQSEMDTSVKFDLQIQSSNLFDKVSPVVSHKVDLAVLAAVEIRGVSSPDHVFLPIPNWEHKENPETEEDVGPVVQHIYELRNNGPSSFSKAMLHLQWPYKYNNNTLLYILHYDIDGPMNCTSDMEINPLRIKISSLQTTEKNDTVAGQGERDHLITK
T1 sequence (P06756 891-1048 partner limits assumed): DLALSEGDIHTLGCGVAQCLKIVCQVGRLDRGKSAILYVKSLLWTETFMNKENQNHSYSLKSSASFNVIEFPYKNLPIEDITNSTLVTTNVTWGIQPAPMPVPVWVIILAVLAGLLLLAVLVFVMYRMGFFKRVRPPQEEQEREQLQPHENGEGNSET
T1 sequence (P05106 27-788): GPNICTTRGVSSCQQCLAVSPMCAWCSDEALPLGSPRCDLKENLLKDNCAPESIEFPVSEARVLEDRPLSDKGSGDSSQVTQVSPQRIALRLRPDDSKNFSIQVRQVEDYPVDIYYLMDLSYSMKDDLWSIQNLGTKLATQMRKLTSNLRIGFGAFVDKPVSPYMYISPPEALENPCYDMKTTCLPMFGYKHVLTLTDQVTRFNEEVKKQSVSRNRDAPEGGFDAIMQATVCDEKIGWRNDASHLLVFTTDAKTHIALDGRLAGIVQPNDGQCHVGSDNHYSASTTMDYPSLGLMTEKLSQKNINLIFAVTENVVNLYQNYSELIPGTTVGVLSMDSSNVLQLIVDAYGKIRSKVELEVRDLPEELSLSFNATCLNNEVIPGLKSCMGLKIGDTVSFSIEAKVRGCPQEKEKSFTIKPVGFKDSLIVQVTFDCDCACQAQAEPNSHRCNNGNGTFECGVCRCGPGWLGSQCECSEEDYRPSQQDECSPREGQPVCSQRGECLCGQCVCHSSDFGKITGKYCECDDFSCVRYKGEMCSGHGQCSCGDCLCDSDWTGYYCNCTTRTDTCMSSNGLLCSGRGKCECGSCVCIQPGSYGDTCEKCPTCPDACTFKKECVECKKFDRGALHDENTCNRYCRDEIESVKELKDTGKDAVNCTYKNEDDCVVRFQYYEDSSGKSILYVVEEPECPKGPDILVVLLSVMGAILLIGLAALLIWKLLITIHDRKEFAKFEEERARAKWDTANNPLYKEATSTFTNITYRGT
Sequence of human platelet rich plasma (PRP) (P08514 32-1039): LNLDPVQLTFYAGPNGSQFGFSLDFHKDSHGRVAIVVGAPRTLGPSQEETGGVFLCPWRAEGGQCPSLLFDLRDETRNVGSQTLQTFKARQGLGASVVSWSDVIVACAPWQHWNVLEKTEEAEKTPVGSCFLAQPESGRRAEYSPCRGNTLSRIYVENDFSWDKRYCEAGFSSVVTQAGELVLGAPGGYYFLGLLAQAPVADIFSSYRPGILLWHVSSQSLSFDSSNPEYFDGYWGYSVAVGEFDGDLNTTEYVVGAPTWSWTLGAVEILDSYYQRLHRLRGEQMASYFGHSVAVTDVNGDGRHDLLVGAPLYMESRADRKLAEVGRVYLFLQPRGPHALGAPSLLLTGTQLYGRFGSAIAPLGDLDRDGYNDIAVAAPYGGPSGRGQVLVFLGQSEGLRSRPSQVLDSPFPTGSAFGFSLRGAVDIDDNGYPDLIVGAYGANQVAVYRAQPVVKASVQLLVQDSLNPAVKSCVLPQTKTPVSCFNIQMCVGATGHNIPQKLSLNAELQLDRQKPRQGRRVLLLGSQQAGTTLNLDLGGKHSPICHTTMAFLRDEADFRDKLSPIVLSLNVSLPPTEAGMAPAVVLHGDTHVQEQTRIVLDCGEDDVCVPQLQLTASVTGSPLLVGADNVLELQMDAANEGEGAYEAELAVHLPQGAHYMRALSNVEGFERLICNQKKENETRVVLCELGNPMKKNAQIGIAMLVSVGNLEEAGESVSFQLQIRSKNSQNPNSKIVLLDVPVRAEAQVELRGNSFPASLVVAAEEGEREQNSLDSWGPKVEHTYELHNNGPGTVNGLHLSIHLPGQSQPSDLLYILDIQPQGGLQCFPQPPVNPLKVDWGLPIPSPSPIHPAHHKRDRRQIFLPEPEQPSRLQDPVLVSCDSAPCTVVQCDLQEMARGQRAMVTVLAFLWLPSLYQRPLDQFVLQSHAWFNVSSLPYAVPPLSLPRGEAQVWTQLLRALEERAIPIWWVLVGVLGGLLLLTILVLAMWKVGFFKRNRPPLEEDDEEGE
Sequence of human platelet rich plasma (PRP) (P05106 27-788): as the sequence (P05106 27-788) above
Sequence of GP IIb IIIa (P08514 32-887 limits assumed): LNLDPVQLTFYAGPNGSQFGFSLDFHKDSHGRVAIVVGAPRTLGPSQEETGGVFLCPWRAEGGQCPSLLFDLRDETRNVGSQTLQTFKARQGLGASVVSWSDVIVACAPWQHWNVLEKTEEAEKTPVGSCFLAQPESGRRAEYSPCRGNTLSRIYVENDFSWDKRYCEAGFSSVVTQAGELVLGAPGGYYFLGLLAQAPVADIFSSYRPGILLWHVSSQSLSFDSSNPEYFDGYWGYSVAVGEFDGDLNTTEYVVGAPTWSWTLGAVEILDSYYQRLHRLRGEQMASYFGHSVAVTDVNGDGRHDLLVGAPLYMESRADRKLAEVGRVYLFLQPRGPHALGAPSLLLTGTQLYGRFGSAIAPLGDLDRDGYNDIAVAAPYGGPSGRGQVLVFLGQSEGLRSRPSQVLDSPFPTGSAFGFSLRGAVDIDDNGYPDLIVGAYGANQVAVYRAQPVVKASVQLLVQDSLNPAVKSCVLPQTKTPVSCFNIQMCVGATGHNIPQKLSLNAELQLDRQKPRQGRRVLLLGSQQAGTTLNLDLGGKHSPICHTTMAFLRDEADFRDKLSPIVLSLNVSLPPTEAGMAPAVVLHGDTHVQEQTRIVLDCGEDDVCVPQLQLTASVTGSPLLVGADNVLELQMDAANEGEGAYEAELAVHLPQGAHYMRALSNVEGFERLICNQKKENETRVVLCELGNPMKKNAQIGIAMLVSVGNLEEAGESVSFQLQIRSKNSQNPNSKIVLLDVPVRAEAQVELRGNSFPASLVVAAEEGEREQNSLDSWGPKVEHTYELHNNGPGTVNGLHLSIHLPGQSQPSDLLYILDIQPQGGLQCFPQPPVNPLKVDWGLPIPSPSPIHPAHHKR
Sequence of GP IIb IIIa (P08514 891-1039 partner limits assumed): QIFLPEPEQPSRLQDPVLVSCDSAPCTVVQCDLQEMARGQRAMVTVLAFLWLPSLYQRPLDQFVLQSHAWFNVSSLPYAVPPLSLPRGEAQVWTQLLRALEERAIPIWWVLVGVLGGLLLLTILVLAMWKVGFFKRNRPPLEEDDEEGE
Sequence of GP IIb IIIa (P05106 27-788): as the sequence (P05106 27-788) above

SMILES	Rabbit % P.A. Inhibition (ex vivo) [1]	IC50 [2] [nM]	IC50 [3]	IC50 (GP IIb IIIa; [4]) [nM]	platelet aggregation inhibition potency, result in words ([3]; human platelet aggregation in vitro)	IC50 (GP IIb IIIa; unit inferred, read-out: IC50 in the GPIIb IIIa -vWF ELISA) [nM]
N=C(N)NCCC[C@@H]1NC(=O)[C@@H](Cc2ccc(O)cc2)NC(=O)C(CCCCN)SC[C@@H](C(=O)O)NC(=O)[C@H](CC(=O)O)NC(=O)CNC1=O (single isomer, unassigned) [9/10, cyclo-S-2-L-(6-aminocaproyl)-Lys--dTyr--Arg--Gly--Asp--Cys--OH]	100%	9.6	498 nM	0.785	–	–
N=C(N)NCCC[C@H](NC(=O)[C@@H]1CSCC(=O)N[C@H](Cc2ccc(O)cc2)C(=O)N[C@@H](CCCNC(=N)N)C(=O)NCC(=O)N[C@@H](CC(=O)O)C(=O)N1)C(N)=O [7/1, cyclo-S-acetyl-dTyr--Arg--Gly--Asp--Cys--Arg--NH2] ({CH2CO}-[dY]RGDCR-NH2; thioether N-5)	100%	49	80 nM and 83 nM	–	equipotent	13.8
N=C(N)NCCC[C@@H]1NC(=O)[C@@H](Cc2ccc(O)cc2)NC(=O)CSC[C@@H](C(=O)N[C@@H](CCCCN)C(N)=O)NC(=O)[C@H](CC(=O)O)NC(=O)CNC1=O [7/3, cyclo-S-acetyl-dTyr--Arg--Gly--Asp--Cys--Lys--NH2] ({CH2CO}-[dY]RGDCK-NH2; thioether N-5)	97%	60	320 nM	15.9	–	–
N=C(N)NCCC[C@@H]1NC(=O)[C@@H](Cc2ccc(O)cc2)NC(=O)CSC[C@@H](C(=O)N[C@@H](CCCN)C(N)=O)NC(=O)[C@H](CC(=O)O)NC(=O)CNC1=O [7/5, cyclo-S-acetyl-dTyr--Arg--Gly--Asp--Cys--Orn--NH2] ({CH2CO}-[dY]RGDC[Orn]-NH2; thioether N-5)	100%	45	–	6.84	–	–
CC1(C)SCC(=O)N[C@H](Cc2ccc(O)cc2)C(=O)N[C@@H](CCCCN)C(=O)NCC(=O)N[C@@H](CC(=O)O)C(=O)N[C@@H]1C(=O)N[C@@H](CCCCN)C(N)=O [7/17, cyclo-S-acetyl-dTyr--Lys--Gly--Asp--Pen--Lys--NH2] ({CH2CO}-[dY]KGD[Pen]K-NH2; thioether N-5)	100%	100000	90 nM	73.1	–	–
N=C(N)NCCC[C@@H]1NC(=O)[C@@H](Cc2ccc(O)cc2)NC(=O)CSC[C@@H](C(=O)O)NC(=O)[C@H](CC(=O)O)NC(=O)CNC1=O [7/46, cyclo-S-acetyl-dTyr--Arg--Gly--Asp--Cys--OH] ({CH2CO}-[dY]RGDC-OH; thioether N-5)	99% and 55%	5	150 nM	0.18	–	–
N=C(N)NCCC[C@@H]1NC(=O)[C@@H](Cc2ccc(O)cc2)NC(=O)CCC[C@@H](C(=O)N[C@@H](CCCCN)C(N)=O)NC(=O)[C@H](CC(=O)O)NC(=O)CNC1=O [10/20, cyclo(1-5)dTyr--Arg--Gly--Asp--L-α-aminoadipic acid-Lys--NH2] ([dY]RGD[Aad]K-NH2; lactam N-5)	100%	20	183 nM	2.74	–	–
